Experimental data taken from patent publication US20050245399A1, “Pyrazole derivatives as herbicidal compositions containing them” (ISHIHARA SANGYO KAISHA, LTD., priority 2004, published 2005).

Columns and labels:
Format in all cases: in vivo
[1] = test system: rice (Oryza sativa L.: ORYSA); experiment: Test Example 3 water application herbicidal activity (paddy), transplanted rice ORYSA; details: 63 g a.i./ha, water application 4th day after transplantation of 2 leaf stage rice, visually observed 21st day after application; 0 = untreated control, 100 = complete kill
Procedure, shortened: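 Submerged application in flooded paddy soil (3–4 cm water); weeds treated at 0.5-leaf stage, transplanted rice 4 d after transplanting. Scored visually as % growth control: weeds at 14 d, rice at 21 d.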

[2] = test system: crabgrass (Digitaria sanguinalis L.): DIGSA; experiment: Test Example 1 pre-emergence herbicidal activity, DIGSA; details: Rate 63 g a.i./ha, visually observed 20th to 23rd day after application
Procedure, shortened: (§1)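 Pots of upland soil were sown, and one day later WP or EC formulations at set active-ingredient rates were sprayed pre-emergence in 500 L/ha water. Growth control scored visually 20–23 days after application, 0 (as untreated) to 100 (complete kill).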

[3] = test system: redroot pigweed (Amaranthus retroflexus L.): AMARE; experiment: Test Example 1 pre-emergence herbicidal activity, AMARE; details: Rate 63 g a.i./ha, visually observed 20th to 23rd day after application
Procedure, shortened: as §1

[4] = test system: barnyardgrass (Echinochloa crus-galli L.): ECHCG; experiment: Test Example 1 pre-emergence herbicidal activity, ECHCG; details: Rate 63 g a.i./ha, visually observed 20th to 23rd day after application
Procedure, shortened: as §1

[5] = test system: common cocklebur (Xanthium strumarium L.), XANST; experiment: Test Example 2 post-emergence (foliage treatment) herbicidal activity, XANST
Excerpt: Upland field soil was put into a 1/170,000 ha pot, and seeds of various plants were sown. Then, when the plants reached predetermined leaf stages {1. barnyardgrass (Echinochloa crus-galli L.), ECHCG: 1.1-2.1 leaf stage, 2. crabgrass (Digitaria sanguinalis L.), DIGSA: 1.0-2.0 leaf stage, 3. green foxtail (Setaria viridis L.), SETVI: 1.0-2.2 leaf stage, 4. redroot pigweed (Amaranthus retroflexus L.), AMARE: 0.1-1.5 leaf stage, 5. prickly sida (Sida spinosa L.), SIDSP: 0.1-0.6 leaf stage, 6. velvetleaf (Abutilon theophrasti), ABUTH: 0.1-0.6 leaf stage, 7. common cocklebur (Xanthium strumarium L.), XANST: 0.1 leaf stage, 8. rice (Oryza sativa L.), ORYSA; 1.0-2 leaf stage, 9. wheat (Triticum aestivum L.), TRZAX: 2.3-3.5 leaf stage, 10. corn (Zea mays L.), ZEAMXN 2.1-2.6 leaf stage, 11. soybean (Glycine max Merr.), GLXMA: primary leaf stage}, a wettable powder or emulsifiable concentrate having the compound of the present invention formulated in accordance with a usual formulation method, was weighed so that the active ingredient would be a predetermined amount, and diluted with water in an amount of 500 L/ha. To the diluted solution, 0.1% (v/v) of an agricultural spreader was added. The herbicide adjusted was applied by a small size sprayer for foliage treatment. On the 20th to 23rd day after the application of the herbicide, the growth of the respective plants was visually observed, and the herbicidal effects were evaluated by growth controlling degrees (%) ranging from 0 (equivalent to the untreated control) to 100 (complete kill), whereby the results shown in Table 5, were obtained. Compound Nos. in Table 5 correspond to Compound Nos. in Table 1 and 2 given hereinbefore.

[6] = test system: velvetleaf (Abutilon theophrasti), ABUTH; experiment: Test Example 2 post-emergence (foliage treatment) herbicidal activity, ABUTH
Procedure, shortened: (§2)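 A small sprayer delivered the diluted WP or EC formulation (500 L/ha water, 0.1% v/v spreader) over emerged seedlings in upland soil pots. Damage relative to untreated plants was graded visually from 0 to 100% three weeks or so later (days 20-23).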

[7] = test system: corn (Zea mays L.): ZEAMX; experiment: Test Example 1 pre-emergence herbicidal activity, ZEAMX; details: Rate 63 g a.i./ha, visually observed 20th to 23rd day after application
Procedure, shortened: as §1

[8] = test system: wheat (Triticum aestivum L.), TRZAX; experiment: Test Example 2 post-emergence (foliage treatment) herbicidal activity, TRZAX
Procedure, shortened: as §2

[9] = test system: corn (Zea mays L.), ZEAMX; experiment: Test Example 2 post-emergence (foliage treatment) herbicidal activity, ZEAMX
Procedure, shortened: as §2

[10] = test system: velvetleaf (Abutilon theophrasti): ABUTH; experiment: Test Example 1 pre-emergence herbicidal activity, ABUTH; details: Rate 63 g a.i./ha, visually observed 20th to 23rd day after application
Procedure, shortened: as §1

[11] = test system: rice (Oryza sativa L.): ORYSA; experiment: Test Example 1 pre-emergence herbicidal activity, ORYSA; details: Rate 63 g a.i./ha, visually observed 20th to 23rd day after application
Procedure, shortened: as §1

[12] = test system: crabgrass (Digitaria sanguinalis L.), DIGSA; experiment: Test Example 2 post-emergence (foliage treatment) herbicidal activity, DIGSA
Procedure, shortened: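 Plants grown in upland soil pots were sprayed on foliage at set leaf stages (ECHCG 1.1-2.1, DIGSA 1.0-2.0, AMARE 0.1-1.5, ORYSA 1.0-2). Formulated compound was applied at predetermined active-ingredient amounts in 500 L/ha water with 0.1% (v/v) spreader. Growth control (0–100%) was visually scored 20–23 days later.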

| SMILES | growth controlling degrees (%) ORYSA [1] [%] | Pre-emergence Herbicidal Activity DIGSP (growth controlling degree) [2] [%] | Pre-emergence Herbicidal Activity AMARE (growth controlling degree) [3] [%] | Pre-emergence Herbicidal Activity ECHCG (growth controlling degree) [4] [%] | growth controlling degree, XANST ([5]; 63 g a.i./ha) [%] | growth controlling degree, ABUTH ([6]; 63 g a.i./ha) [%] | Pre-emergence Herbicidal Activity ZEAMX (growth controlling degree) [7] [%] | growth controlling degree, TRZAX ([8]; 63 g a.i./ha) [%] | growth controlling degree, ZEAMX ([9]; 63 g a.i./ha) [%] | Pre-emergence Herbicidal Activity ABUTH (growth controlling degree) [10] [%] | Pre-emergence Herbicidal Activity ORYSA (growth controlling degree) [11] [%] | growth controlling degree, DIGSP ([12]; 63 g a.i./ha) [%] | growth controlling degree, XANST ([5]; 125 g a.i./ha) [%] | growth controlling degree, ABUTH ([6]; 125 g a.i./ha) [%] | growth controlling degree, TRZAX ([8]; 125 g a.i./ha) [%] | growth controlling degree, ZEAMX ([9]; 125 g a.i./ha) [%] | growth controlling degree, DIGSP ([12]; 125 g a.i./ha) [%] |
| --- | --- | --- | --- | --- | --- | --- | --- | --- | --- | --- | --- | --- | --- | --- | --- | --- | --- |
| COc1c(Cl)cc(F)c(-c2nn(C)c(OC(F)F)c2Cl)c1N(C=O)CC(=O)c1ccc(Cl)cc1 [Compound 1-13] | 10 | 70 | 100 | 80 | 50 | 100 | 40 | 30 | 40 | 100 | 70 | 70 |  |  |  |  |  |
| COc1c(Cl)cc(F)c(-c2nn(C)c(OC(F)F)c2Cl)c1N(C=O)CC(C)=O [Compound 1-14] | 50 | 98 | 100 | 98 | 100 | 100 | 40 | 40 | 40 | 100 | 40 | 98 |  |  |  |  |  |
| CNc1c(OC)c(Cl)cc(F)c1-c1nn(C)c(OC(F)F)c1Cl [Compound 1-58] | 70 | 100 | 100 | 100 | 100 | 100 | 0 | 60 | 100 | 95 | 60 | 100 |  |  |  |  |  |
| COc1c(Cl)cc(F)c(-c2nn(C)c(OC(F)F)c2Cl)c1NC(C)C [Compound 1-59] | 40 | 100 | 100 | 60 | 100 | 100 | 10 | 50 | 80 | 95 | 50 | 98 |  |  |  |  |  |
| COc1c(Cl)cc(F)c(-c2nn(C)c(OC(F)F)c2Cl)c1NC1CCCC1 [Compound 1-60] | 30 | 10 | 95 | 0 | 100 | 100 | 0 | 40 | 50 | 30 | 0 | 80 |  |  |  |  |  |
| Cn1nc(-c2c(F)cc(Cl)c(OC(F)F)c2N)c(Cl)c1OC(F)F [Compound 1-81, 3-chloro-6-[4-chloro-5-(difluoromethoxy)-1-methyl-1H-pyrazol-3-yl]-2-(difluoromethoxy)-5-fluorobenzenamine] | 35 | 100 | 100 | 90 |  |  | 10 |  |  | 100 | 20 |  | 100 | 100 | 100 | 90 | 100 |
